Source: ChEMBL document CHEMBL4421736, “INHIBITORS OF SARM1 NADase ACTIVITY AND USES THEREOF” (2018)
The source made the active and inactive calls. The calls are words filed in the database; no cut-off is given here.

Experiments:
Type in all cases: cell-based
[1] = target: T1, NAD(+) hydrolase SARM1 (Homo sapiens) (UniProt Q6SZW1); assay: Inhibition of StrepTag-tagged human SARM1 TIR (561 to 724 residues) expressed in HEK293T cells assessed as reduction in NADase activity at 1 mM in presence of NAD+ incubated for 60 mins by HPLC analysis
T1 sequence (whole entry): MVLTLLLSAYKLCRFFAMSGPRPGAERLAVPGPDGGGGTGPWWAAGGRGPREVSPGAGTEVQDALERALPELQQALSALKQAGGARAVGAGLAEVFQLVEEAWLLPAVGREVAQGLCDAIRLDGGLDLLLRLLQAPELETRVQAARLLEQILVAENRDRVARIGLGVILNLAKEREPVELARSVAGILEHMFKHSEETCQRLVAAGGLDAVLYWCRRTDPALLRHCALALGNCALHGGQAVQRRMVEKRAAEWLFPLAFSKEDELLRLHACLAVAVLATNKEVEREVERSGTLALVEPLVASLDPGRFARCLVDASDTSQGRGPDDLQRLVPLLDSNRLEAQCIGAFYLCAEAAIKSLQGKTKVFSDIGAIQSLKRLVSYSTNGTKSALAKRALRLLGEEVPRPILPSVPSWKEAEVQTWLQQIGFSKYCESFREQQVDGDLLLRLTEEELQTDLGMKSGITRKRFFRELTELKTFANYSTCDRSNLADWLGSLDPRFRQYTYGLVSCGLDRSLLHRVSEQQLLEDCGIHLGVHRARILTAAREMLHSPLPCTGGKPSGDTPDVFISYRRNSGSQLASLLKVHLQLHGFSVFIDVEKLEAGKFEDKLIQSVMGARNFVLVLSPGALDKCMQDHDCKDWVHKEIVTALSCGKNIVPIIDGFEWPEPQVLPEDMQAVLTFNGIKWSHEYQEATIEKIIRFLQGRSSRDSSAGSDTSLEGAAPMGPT

[2] = target: T1, NAD(+) hydrolase SARM1 (Homo sapiens); assay: Substrate activity at StrepTag-tagged human SARM1 TIR (561 to 724 residues) expressed in HEK293T cells assessed as increase in NADase activity in presence of NAD+ incubated for 60 mins by HPLC analysis
[3] = target: T2, NAD(+) hydrolase SARM1 (Mus musculus) (UniProt Q6PDS3); assay: Inhibition of SARM1 in CD1 mouse DRG cells assessed as inhibition of axon degeneration by measuring reduction in NAD+ consumption rate at 5 uM added 30 mins prior to D4-Nam addition and measured 4 hrs post D4-Nam addition by LC-MS/MS analysis
T2 sequence (whole entry): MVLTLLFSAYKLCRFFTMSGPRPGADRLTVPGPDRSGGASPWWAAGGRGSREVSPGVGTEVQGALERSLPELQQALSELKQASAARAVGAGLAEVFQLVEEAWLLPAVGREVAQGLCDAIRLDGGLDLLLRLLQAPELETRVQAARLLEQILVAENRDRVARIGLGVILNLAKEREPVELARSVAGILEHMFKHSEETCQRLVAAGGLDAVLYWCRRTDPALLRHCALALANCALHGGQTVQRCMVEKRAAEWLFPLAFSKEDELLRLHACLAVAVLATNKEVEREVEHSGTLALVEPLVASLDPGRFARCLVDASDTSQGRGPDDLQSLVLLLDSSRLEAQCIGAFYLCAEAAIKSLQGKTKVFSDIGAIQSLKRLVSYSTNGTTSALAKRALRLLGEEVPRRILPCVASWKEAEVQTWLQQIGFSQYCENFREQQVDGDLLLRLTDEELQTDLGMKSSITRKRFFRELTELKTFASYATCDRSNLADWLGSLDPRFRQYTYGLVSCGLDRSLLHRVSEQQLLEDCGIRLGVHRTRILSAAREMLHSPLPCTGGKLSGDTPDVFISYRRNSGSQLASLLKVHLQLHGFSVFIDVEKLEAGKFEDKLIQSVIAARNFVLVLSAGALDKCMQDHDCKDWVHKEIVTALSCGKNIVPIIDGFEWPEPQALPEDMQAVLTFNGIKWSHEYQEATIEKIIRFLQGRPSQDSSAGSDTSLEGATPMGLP

[4] = target: T1, NAD(+) hydrolase SARM1 (Homo sapiens); assay: Inhibition of StrepTag-tagged human SARM1 TIR (561 to 724 residues) expressed in NRK1-HEK293T cells assessed as reduction in NADase activity by measuring ADPR production at 150 uM pre-incubated up to 120 mins before NAD+ addition and further incubated for 60 mins by HPLC analysis; set-up: scale not given: the % may be the effect or the level left
[5] = target: T1, NAD(+) hydrolase SARM1 (Homo sapiens); assay: Inhibition of StrepTag-tagged human SARM1 TIR (561 to 724 residues) expressed in NRK1-HEK293T cells assessed as reduction in NADase activity by measuring NAD consumption at 150 uM pre-incubated up to 120 mins before NAD+ addition and further incubated for 60 mins by HPLC analysis relative to control; set-up: scale not given: the % may be the effect or the level left
[6] = target: T1, NAD(+) hydrolase SARM1 (Homo sapiens); assay: Substrate activity at StrepTag-tagged human SARM1 TIR (561 to 724 residues) expressed in HEK293T cells assessed as increase in NADase activity at 100 uM in presence of NAD+ incubated for 60 mins by HPLC analysis
[7] = target: T1, NAD(+) hydrolase SARM1 (Homo sapiens); assay: Inhibition of StrepTag-tagged human SARM1 TIR (561 to 724 residues) expressed in HEK293T cells assessed as reduction in NADase activity at 5 uM in presence of NAD+ incubated for 60 mins by HPLC analysis
[8] = target: T1, NAD(+) hydrolase SARM1 (Homo sapiens); assay: Inhibition of StrepTag-tagged human SARM1 TIR (561 to 724 residues) expressed in HEK293T cells in presence of NAD+ incubated for 60 mins by chemiluminescence based NAD+ Glo assay
[9] = target: T1, NAD(+) hydrolase SARM1 (Homo sapiens); assay: Inhibition of StrepTag-tagged human SARM1 TIR (561 to 724 residues) expressed in HEK293T cells assessed as reduction in NADase activity at 5 uM in presence of NAD+ incubated for 60 mins by LC-MS/MS analysis
[10] = target: T2, NAD(+) hydrolase SARM1 (Mus musculus); assay: Inhibition of SARM1 in CD1 mouse DRG cells assessed as inhibition of axon degeneration measured during 6 to 24 hrs by drop culture assay
[11] = target: T2, NAD(+) hydrolase SARM1 (Mus musculus); assay: Inhibition of SARM1 in CD1 mouse DRG cells assessed as inhibition of axon degeneration measured during 6 to 24 hrs by SEM micrography
[12] = target: T2, NAD(+) hydrolase SARM1 (Mus musculus); assay: Inhibition of SARM1 in CD1 mouse DRG cells assessed as inhibition of axon degeneration by measuring reduction in NAD+ consumption rate added 30 mins prior to D4-Nam addition and measured 4 hrs post D4-Nam addition by LC-MS/MS analysis

## NC(=O)C1CCCc2c1[nH]c1ccc(Cl)cc21 (stereo unspecified)
[1]
  inhibition: Active
[2]
  Activity: inactive

## COC(=O)CC1(C(=O)OC)Nc2cc(Cl)c(Cl)cc2S(=O)(=O)N1O (stereo unspecified)
[3]
  inhibition: Active

## NC(=O)c1ccc(N)nc1
[2]
  Activity: inactive

## Cn1c2ccccc2c2ccc3c(c21)C(=O)C=CC3=O
[3]
  inhibition: Active

## COc1cnc2[nH]c([S+]([O-])Cc3ncc(C)c(OC)c3C)nc2c1 (stereo unspecified)
[4]
  Activity: 50 to 75%
[5]
  Activity: > 75%

## Cc1cccc2c1c1ccc3c(c1n2C)C(=O)C=CC3=O
[3]
  inhibition: Active

## O=C1NC(=O)C(=Cc2csc3ccccc23)C(=O)N1
[3]
  inhibition: Active

## Cc1cnc(C[S@@+]([O-])c2nc3ccccc3[nH]2)c(C)c1OCC(F)(F)F
[4]
  Activity: < 50%
[5]
  Activity: > 75%

## O=C1NC(=O)C(=Cc2ccc3ccccc3c2)C(=O)N1
[3]
  inhibition: Active

## Cc1ccc2c(c1)c1ccc3c(c1n2C)C(=O)C=CC3=O
[3]
  inhibition: Active

## NC(=O)C1=CN([C@@H]2O[C@H](COP(=O)(O)OP(=O)(O)OC[C@H]3O[C@@H](n4cnc5c(N)ncnc54)[C@H](OP(=O)(O)O)[C@@H]3O)[C@@H](O)[C@H]2O)C=CC1
[6]
  Activity: Active
[2]
  Activity: Active

## COc1ccc2[nH]c([S+]([O-])Cc3ncc(C)c(OC)c3C)nc2c1 (stereo unspecified)
[7]
  inhibition: Active

## CC1=C(O)C(=O)C=C2C1=CC=C1[C@@]2(C)CC[C@@]2(C)[C@@H]3C[C@](C)(C(=O)O)CC[C@]3(C)CC[C@]12C
[3]
  inhibition: Active

## NC(=O)C1=CN([C@@H]2O[C@H](COP(=O)(O)OP(=O)(O)OC[C@H]3O[C@@H](n4cnc5c4ncn4ccnc54)[C@H](O)[C@@H]3O)[C@@H](O)[C@H]2O)CC=C1
[1]
  inhibition: Active
[2]
  Activity: inactive

## O=C(c1ccccc1)C1C(c2ccccc2)C1[N+](=O)[O-] (stereo unspecified)
[3]
  inhibition: Active

## NC(=S)c1cccnc1
[2]
  Activity: inactive

## CC(=O)c1cccnc1
[2]
  Activity: inactive

## CN(C)c1n/c(=N/c2cccc(Cl)c2)ss1
[3]
  inhibition: Active
[8]
  inhibition: Active
[9]
  inhibition: Active

## CCN(CC)c1ccc(C=C2C(=O)NC(=S)NC2=O)cc1
[3]
  inhibition: Active

## COc1ccc2c(c1)nc([S+]([O-])Cc1ncc(C)c(OC)c1C)n2C (stereo unspecified)
[4]
  Activity: > 75%
[5]
  Activity: > 75%

## NC(=O)C1=CN([C@@H]2O[C@H](COP(=O)(O)OP(=O)(O)OC[C@H]3O[C@@H](n4cnc5c(=O)[nH]cnc54)[C@H](O)[C@@H]3O)[C@@H](O)[C@H]2O)CC=C1
[2]
  Activity: Active

## Oc1cc(CNC2CCCCC2)c(O)cc1CNC1CCCCC1
[3]
  inhibition: Active

## NC(=O)c1ccccc1
[2]
  Activity: inactive

## O=Cc1cccnc1
[2]
  Activity: inactive

## CCOc1ccc(NC(=O)C2CCCN(C)C2)cc1 (stereo unspecified)
[3]
  inhibition: Active

## CN(C)c1n/c(=N/Cc2ccco2)ss1
[3]
  inhibition: Active
[10]
  inhibition: Active
[11]
  inhibition: Active
[9]
  inhibition: Active
[12]
  inhibition: Dose-dependent effect

## CCOC(=O)/C(C#N)=C1\SS/C(=C(/C#N)C(=O)OCC)S1
[3]
  inhibition: Active

## O=C1N=C(c2ccccc2)C(c2ccccc2)N1 (stereo unspecified)
[3]
  inhibition: Active

## Cc1ccc([S+]([O-])c2ccc([N+](=O)[O-])c3nonc23)cc1 (stereo unspecified)
[3]
  inhibition: Active

## Cc1cc(O)c(-c2cc(O)c(C)cc2O)cc1O
[3]
  inhibition: Active

## Cc1c(OCC(F)(F)F)ccnc1CSc1nc2ccccc2[nH]1
[4]
  Activity: > 75%
[5]
  Activity: > 75%

## Cc1c(OCC(F)(F)F)ccnc1C[S+]([O-])c1nc2ccccc2[nH]1 (stereo unspecified)
[7]
  inhibition: Active

## CC1(C)CC[C@]2(C(=O)n3ccnc3)CC[C@]3(C)[C@H](C(=O)C=C4[C@@]5(C)C=C(C#N)C(=O)C(C)(C)[C@@H]5CC[C@]43C)[C@@H]2C1
[3]
  inhibition: Active

## Cc1c(OCC(F)(F)F)ccnc1CS(=O)(=O)c1nc2ccccc2[nH]1
[4]
  Activity: > 75%
[5]
  Activity: > 75%

## COc1ccc2c(c1)c1ccc3c(c1n2C)C(=O)C=CC3=O
[3]
  inhibition: Active

## COc1ccc2[nH]c([S+]([O-])Cc3ncc(C)c(OC)c3C)nc2n1 (stereo unspecified)
[7]
  inhibition: Active
[4]
  Activity: < 50%
[5]
  Activity: 50 to 75%

## Cc1c(OCC(F)(F)F)ccnc1C[S@@+]([O-])c1nc2ccccc2[nH]1
[7]
  inhibition: Active

## COCCCOc1ccnc(C[S+]([O-])c2nc3ccccc3[nH]2)c1C (stereo unspecified)
[7]
  inhibition: Active

## COc1ccnc(C[S+]([O-])c2nc3cc(OC(F)F)ccc3[nH]2)c1OC (stereo unspecified)
[7]
  inhibition: Active

## O=[N+]([O-])c1ccc(Sc2cccc[n+]2[O-])c2nonc12
[3]
  inhibition: Active
